Measurements from patent publication US20200024278A1, “COMPOSITION COMPRISING ANTIBIOTIC COMPOUND AND AN HETEROCYCLIC COMPOUND AND THEIR USE IN PREVENTING OR TREATING BACTERIAL INFECTIONS” (MUTABILIS, priority 2016, published 2020).

Columns and labels:
Test in all cases: MIC, broth microdilution (CLSI), substance alone or ATB combined with compound at 4 or 8 μg/mL
KPN BAA-1898 = format: cell-based, K. pneumoniae; conditions: KPN BAA-1898; for MIC ATB combined with Example: Example @4 μg/ml
Summary of the method: (§1)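 Antibiotic MICs were determined in presence of fixed compound at 4 or 8 μg/mL, and compound MICs alone, by visual growth inhibition. Inoculum 5·10^5 CFU/mL in ca-MHB, incubated 35 °C for 16-20 h per CLSI-M7-A7. Glucose-6-phosphate (25 μg/ml) added when fosfomycin was tested.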

KPN 6299 = format: cell-based, K. pneumoniae; conditions: for MIC ATB combined with Example: Example @4 μg/ml
Summary of the method: as §1

KPN UFR42 = format: cell-based, K. pneumoniae; conditions: KPN UFR42; for MIC ATB combined with Example: Example @4 μg/ml; for MIC ATB combined with Example compound: compound @4 μg/ml
Summary of the method: as §1

ABA UFR152 = format: cell-based, A. baumannii; conditions: Acinetobacter baumannii, substance alone, read-out: MIC
Summary of the method: as §1

ABA UFR154 = format: cell-based, A. baumannii; conditions: Acinetobacter baumannii, substance alone, read-out: MIC
Summary of the method: as §1

PAE UFR48 = format: cell-based, P. aeruginosa; conditions: PAE UFR48; for MIC ATB combined with Example: Example @4 μg/ml; for MIC ATB combined with Example compound: compound @4 μg/ml
Summary of the method: as §1

PAE UFR90 = format: cell-based, P. aeruginosa; conditions: PAE UFR90; for MIC ATB combined with Example: Example @4 μg/ml; for MIC ATB combined with Example compound: compound @4 μg/ml
Summary of the method: as §1

PAE 105250 = format: cell-based, P. aeruginosa; conditions: PAE 105250; for MIC ATB combined with Example: Example @4 μg/ml; for MIC ATB combined with Example compound: compound @4 μg/ml
Summary of the method: as §1

SPN 49619 = format: cell-based, S. pneumoniae; conditions: SPN 49619; for MIC ATB combined with Example: Example @4 μg/ml; for MIC ATB combined with Example compound: compound @4 μg/ml
Summary of the method: as §1

ECO 190317 = format: cell-based, E. coli; conditions: ECO 190317; for MIC ATB combined with Example: Example @4 μg/ml
Summary of the method: as §1

ECO UFR39 = format: cell-based, E. coli; conditions: ECO UFR39; for MIC ATB combined with Example: Example @4 μg/ml; for MIC ATB combined with Example compound: compound @4 μg/ml
Summary of the method: as §1

ECL P99 = format: cell-based, E. cloacae; conditions: ECL P99; for MIC ATB combined with Example: Example @4 μg/ml
Summary of the method: as §1

SAU 29213 = format: cell-based, S. aureus; conditions: for MIC ATB combined with Example / MIC ATB combined with Example compound: SAU 29213; for MIC ATB combined with Example: Example @4 μg/ml; for MIC ATB combined with Example compound: compound @4 μg/ml
Summary of the method: as §1

[1] = Pseudomonas aeruginosa, substance alone, read-out: MIC
[2] = Escherichia coli, substance alone, read-out: MIC

SMILES: O=C1N2CC(n3cccn3)=C[C@H](C2)N1OS(=O)(=O)[O-].[Na+] [Example 15, sodium [(5R)-7-oxo-3-pyrazol-1-yl-1,6-diazabicyclo[3.2.1]oct-3-en-6-yl] sulfate]
- MIC ATB combined with Example (KPN BAA-1898; ATB ATM): <0.031 µg/mL
- MIC ATB combined with Example (KPN BAA-1898; ATB FEP): <0.031 µg/mL
- MIC ATB combined with Example (KPN BAA-1898; ATB FOS): 0.25 µg/mL
- MIC ATB combined with Example (KPN BAA-1898; ATB MEM): <0.031 µg/mL
- MIC ATB combined with Example (KPN BAA-1898; ATB PIP): <0.031 µg/mL
- MIC (KPN BAA-1898; Klebsiella pneumoniae, BAA1898, substance alone, read-out: MIC): 4 µg/mL
- MIC ATB combined with Example compound (KPN BAA-1898; MIC of CIP, compound @4 μg/ml): <=0.031 μg/mL
- MIC ATB combined with Example (KPN 6299; ATB ATM): <0.031 µg/mL
- MIC ATB combined with Example (KPN 6299; ATB FEP): <=0.25 μg/mL
- MIC ATB combined with Example (KPN 6299; ATB FOS): <=0.125 μg/mL
- MIC ATB combined with Example (KPN 6299; ATB MEM): <0.031 µg/mL
- MIC ATB combined with Example (KPN 6299; ATB PIP): <0.031 µg/mL
- MIC ATB combined with Example compound (KPN 6299; MIC of CIP, compound @4 μg/ml): 0.063 µg/mL
- MIC ATB combined with Example (KPN UFR42; ATB ATM): <0.031 µg/mL
- MIC ATB combined with Example (KPN UFR42; ATB FEP): <0.031 µg/mL
- MIC ATB combined with Example (KPN UFR42; ATB FOS): <=0.125 μg/mL
- MIC ATB combined with Example (KPN UFR42; ATB MEM): <0.031 µg/mL
- MIC ATB combined with Example (KPN UFR42; ATB PIP): <0.031 µg/mL
- MIC (KPN UFR42; Klebsiella pneumoniae, substance alone, read-out: MIC): 4 µg/mL
- MIC ATB combined with Example compound (KPN UFR42; MIC of CIP): >32 µg/mL
- MIC ATB combined with Example compound (KPN UFR42; MIC of CPO): <=0.031 μg/mL
- MIC (ABA UFR152): > 32 µg/mL
- MIC (ABA UFR154): > 32 µg/mL
- MIC ATB combined with Example (PAE UFR48; ATB ATM): 8 µg/mL
- MIC ATB combined with Example (PAE UFR48; ATB FEP): 32 µg/mL
- MIC ATB combined with Example (PAE UFR48; ATB FOS): 32 µg/mL
- MIC ATB combined with Example (PAE UFR48; ATB MEM): 0.5 µg/mL
- MIC ATB combined with Example (PAE UFR48; ATB PIP): 32 µg/mL
- MIC ATB combined with Example compound (PAE UFR48; MIC of CIP): 4 µg/mL
- MIC ATB combined with Example compound (PAE UFR48; MIC of CPO): >32 µg/mL
- MIC (PAE UFR48; [1]): > 32 µg/mL
- MIC ATB combined with Example (PAE UFR90; ATB ATM): 4 µg/mL
- MIC ATB combined with Example (PAE UFR90; ATB FEP): 2 µg/mL
- MIC ATB combined with Example (PAE UFR90; ATB FOS): 8 µg/mL
- MIC ATB combined with Example (PAE UFR90; ATB MEM): 1 µg/mL
- MIC ATB combined with Example (PAE UFR90; ATB PIP): 16 µg/mL
- MIC ATB combined with Example compound (PAE UFR90; MIC of CIP): 1 µg/mL
- MIC ATB combined with Example compound (PAE UFR90; MIC of CPO): 4 µg/mL
- MIC (PAE UFR90; [1]): > 32 µg/mL
- MIC ATB combined with Example (PAE 105250; ATB ATM): 8 µg/mL
- MIC ATB combined with Example (PAE 105250; ATB FEP): 8 µg/mL
- MIC ATB combined with Example (PAE 105250; ATB FOS): >128 µg/mL
- MIC ATB combined with Example (PAE 105250; ATB MEM): 2 µg/mL
- MIC ATB combined with Example (PAE 105250; ATB PIP): 32 µg/mL
- MIC ATB combined with Example compound (PAE 105250; MIC of CIP): 0.125 µg/mL
- MIC ATB combined with Example compound (PAE 105250; MIC of CPO): 16 µg/mL
- MIC (PAE 105250; [1]): > 32 µg/mL
- MIC ATB combined with Example (SPN 49619; ATB ATM): >32 µg/mL
- MIC ATB combined with Example (SPN 49619; ATB FEP): 0.063 µg/mL
- MIC ATB combined with Example (SPN 49619; ATB FOS): 16 µg/mL
- MIC ATB combined with Example (SPN 49619; ATB MEM): <=0.031 μg/mL
- MIC ATB combined with Example (SPN 49619; ATB PIP): 0.5 µg/mL
- MIC ATB combined with Example compound (SPN 49619; MIC of CIP): 0.25 µg/mL
- MIC ATB combined with Example compound (SPN 49619; MIC of CLI): 0.031 µg/mL
- MIC ATB combined with Example compound (SPN 49619; MIC of CPO): <=0.031 μg/mL
- MIC ATB combined with Example compound (SPN 49619; MIC of DAP): 0.125 µg/mL
- MIC ATB combined with Example compound (SPN 49619; MIC of ERY): 0.063 µg/mL
- MIC ATB combined with Example compound (SPN 49619; MIC of LZD): 0.25 µg/mL
- MIC ATB combined with Example compound (SPN 49619; MIC of RIF): 0.0078 µg/mL
- MIC ATB combined with Example compound (SPN 49619; MIC of SYN): 0.5 µg/mL
- MIC ATB combined with Example compound (SPN 49619; MIC of VAN): 0.125 µg/mL
- MIC (SPN 49619; Streptococcus pneumoniae, substance alone, read-out: MIC): 8 µg/mL
- MIC ATB combined with Example (ECO 190317; ATB ATM): <0.031 µg/mL
- MIC ATB combined with Example (ECO 190317; ATB FEP): <0.031 µg/mL
- MIC ATB combined with Example (ECO 190317; ATB FOS): <0.125 µg/mL
- MIC ATB combined with Example (ECO 190317; ATB MEM): <0.031 µg/mL
- MIC ATB combined with Example (ECO 190317; ATB PIP): <0.031 µg/mL
- MIC (ECO 190317; [2]): 1 µg/mL
- MIC ATB combined with Example compound (ECO 190317; MIC of CIP, compound @4 μg/ml): <0.031 µg/mL
- MIC ATB combined with Example (ECO UFR39; ATB ATM): <0.031 µg/mL
- MIC ATB combined with Example (ECO UFR39; ATB FEP): <0.031 µg/mL
- MIC ATB combined with Example (ECO UFR39; ATB FOS): <=0.125 μg/mL
- MIC ATB combined with Example (ECO UFR39; ATB MEM): <0.031 µg/mL
- MIC ATB combined with Example (ECO UFR39; ATB PIP): <0.031 µg/mL
- MIC (ECO UFR39; [2]): 2 µg/mL
- MIC ATB combined with Example compound (ECO UFR39; MIC of CIP): <=0.031 μg/mL
- MIC ATB combined with Example compound (ECO UFR39; MIC of CPO): <=0.031 μg/mL
- MIC ATB combined with Example (ECL P99; ATB ATM): <0.031 µg/mL
- MIC ATB combined with Example (ECL P99; ATB FEP): <0.031 µg/mL
- MIC ATB combined with Example (ECL P99; ATB FOS): <=0.125 μg/mL
- MIC ATB combined with Example (ECL P99; ATB MEM): <0.031 µg/mL
- MIC ATB combined with Example (ECL P99; ATB PIP): <0.031 µg/mL
- MIC (ECL P99; Enterobacter cloacae, substance alone, read-out: MIC): 2 µg/mL
- MIC ATB combined with Example compound (ECL P99; MIC of CIP, compound @4 μg/ml): <=0.031 μg/mL
- MIC ATB combined with Example (SAU 29213; ATB ATM): >32 µg/mL
- MIC ATB combined with Example (SAU 29213; ATB FEP): 0.5 µg/mL
- MIC ATB combined with Example (SAU 29213; ATB FOS): 0.25 µg/mL
- MIC ATB combined with Example (SAU 29213; ATB MEM): <=0.031 μg/mL
- MIC ATB combined with Example (SAU 29213; ATB PIP): 0.5 µg/mL
- MIC ATB combined with Example compound (SAU 29213; MIC of CIP): <=0.031 μg/mL
- MIC ATB combined with Example compound (SAU 29213; MIC of CLI): <0.0010 µg/mL
- MIC ATB combined with Example compound (SAU 29213; MIC of CPO): 0.063 µg/mL
- MIC ATB combined with Example compound (SAU 29213; MIC of DAP): <=0.0020 μg/mL
- MIC ATB combined with Example compound (SAU 29213; MIC of ERY): <0.0020 µg/mL
- MIC ATB combined with Example compound (SAU 29213; MIC of LZD): 0.016 µg/mL
- MIC ATB combined with Example compound (SAU 29213; MIC of RIF): 0.0039 µg/mL
- MIC ATB combined with Example compound (SAU 29213; MIC of SYN): 0.063 µg/mL
- MIC ATB combined with Example compound (SAU 29213; MIC of VAN): 0.5 µg/mL
- MIC (SAU 29213; Staphylococcus aureus, substance alone, SAU 29213 (MSSA 29213), read-out: MIC): 4 µg/mL
